This assay deals with Nude mice, LX-1 lung xenograft intrarenal, tumor weight T/C. Kind of assay: NCI In Vivo Anticancer Drug Screen. Data for tumor model Human Lung LX-1 Xenograft (intrarenal inoculation) in NU/NU BALB/C (nude) mice. As to conditions: endpoint: mean tumor weight change, higher = larger tumour. As to the method:
The antitumor activity of compounds was measured in mice bearing transplantable tumors. Survival or tumor size were measured and the results are expressed as the measurement made in the treated group (T) divided by the measurement made in the vehicle treated control group (C). The tumor model used in this assay is Human Lung LX-1 Xenograft (intrarenal inoculation) in NU/NU BALB/C (nude) mice
In general terms: In xenograft studies the graft and the host belong to different species.

[1] abbreviates: dose: 300.0 mg/kg/injection, schedule: Q04DX003 (sc), vehicle: saline with Tween-80.
The mark [2] stands for this setting: dose: 600.0 mg/kg/injection, schedule: Q04DX003 (sc), vehicle: saline with Tween-80.
The mark [3] stands for this setting: dose: 1200.0 mg/kg/injection, schedule: Q04DX003 (sc), vehicle: saline with Tween-80.
Setting [4] is: dose: 2400.0 mg/kg/injection, schedule: Q04DX003 (sc), vehicle: saline with Tween-80.
Setting [5] is: dose: 300.0 mg/kg/injection, schedule: Q04DX003 (sc), vehicle: Klucel (hydroxypropylcellulose) (HPC).
Where [6] appears, read: dose: 600.0 mg/kg/injection, schedule: Q04DX003 (sc), vehicle: Klucel (hydroxypropylcellulose) (HPC).

“And” between values parts separate entries of the source, which are not always exact repeats. Equal values may be shown once. Inconclusive results are not listed.

Regarding `COc1cccc2c1C(=O)c1c(O)c3c(c(O)c1C2=O)C[C@@](O)(/C(C)=N\O)C[C@@H]3OC1CC(N)C(O)C(C)O1` (some centres not stated), the T/C was 87 % of control (dose: 25.0 mg/kg/injection, schedule: Q04DX003 (sc), vehicle: saline); 65 % of control and 76 % of control (dose: 50.0 mg/kg/injection, schedule: Q04DX003 (sc), vehicle: saline); 17 % of control and 18 % of control (dose: 100.0 mg/kg/injection, schedule: Q04DX003 (sc), vehicle: saline).

`CCS/C(SC)=C(/c1ccccc1)[P+](c1ccccc1)(c1ccccc1)c1ccccc1`: the T/C is, setting by setting: (dose: 9.38 mg/kg/injection, schedule: Q04DX003 (sc), vehicle: Klucel (hydroxypropylcellulose) (HPC)) 79 % of control; (dose: 18.75 mg/kg/injection, schedule: Q04DX003 (sc), vehicle: Klucel (hydroxypropylcellulose) (HPC)) 76 % of control; (dose: 37.5 mg/kg/injection, schedule: Q04DX003 (sc), vehicle: Klucel (hydroxypropylcellulose) (HPC)) 110 % of control.

In the case of `O=S(=O)(CCl)OCCCl`, the T/C runs as follows: (dose: 50.0 mg/kg/injection, schedule: Q04DX003 (sc), vehicle: saline with Tween-80) 122 % of control; (dose: 100.0 mg/kg/injection, schedule: Q04DX003 (sc), vehicle: saline with Tween-80) 101 % of control.

In the case of `O=C(CCBr)N1CCN(C(=O)CCBr)CC1`, the T/C (dose: 50.0 mg/kg/injection, schedule: Q01DX010 (sc), vehicle: Klucel (hydroxypropylcellulose) (HPC)) was 48 % of control.

Take `CC(=O)OCN(C)C=O`: the T/C was 65 % of control (dose: 300.0 mg/kg/injection, schedule: Q01DX010 (sc), vehicle: water); 52 % of control (dose: 600.0 mg/kg/injection, schedule: Q01DX010 (sc), vehicle: water); 40 % of control (dose: 1200.0 mg/kg/injection, schedule: Q01DX010 (sc), vehicle: water); 45 % of control (dose: 2400.0 mg/kg/injection, schedule: Q01DX010 (sc), vehicle: water).

As to `CN(C)CCC(=O)C(=Cc1ccc(O)cc1)C(=O)CCN(C)C`, the T/C runs as follows: (dose: 75.0 mg/kg/injection, schedule: Q04DX003 (ip), vehicle: saline) 95 % of control; (dose: 150.0 mg/kg/injection, schedule: Q04DX003 (ip), vehicle: saline) 116 % of control.

For `CC(=O)Oc1[nH]c(=O)c2cccc3c2c1CCC3`, the T/C is, setting by setting: under setting [1], 62 % of control; under setting [2], 68 % of control; under setting [3], 90 % of control; under setting [4], 83 % of control.

`CC(=O)NC(Cc1ccc(F)cc1)C(=O)O` (configuration not stated): the T/C reads like this: under setting [1], 112 % of control; under setting [2], 71 % of control; under setting [3], 91 % of control; under setting [4], 107 % of control.

On to `N=c1ccn2c(n1)OC1C(O)C(CO)OC12` (configuration not stated), for which the T/C (dose: 400.0 mg/kg/injection, schedule: Q04DX003 (sc), vehicle: saline) was 67 % of control; the T/C (dose: 800.0 mg/kg/injection, schedule: Q04DX003 (sc), vehicle: saline) was 48 % of control; the T/C (dose: 1600.0 mg/kg/injection, schedule: Q04DX003 (sc), vehicle: saline) was 16 % of control; the T/C (dose: 3200.0 mg/kg/injection, schedule: Q04DX003 (sc), vehicle: saline) is 8 % of control.

On to `NNC(=S)N/N=C/c1ccccn1`, for which the T/C is 78 % of control (dose: 15.0 mg/kg/injection, schedule: Q04DX003 (sc), vehicle: saline with Tween-80); 95 % of control (dose: 30.0 mg/kg/injection, schedule: Q04DX003 (sc), vehicle: saline with Tween-80); 94 % of control (dose: 60.0 mg/kg/injection, schedule: Q04DX003 (sc), vehicle: saline with Tween-80).

With `CN1CCc2c(c3ccccc3c3ccccc23)C1`, the T/C was 58 % of control (dose: 150.0 mg/kg/injection, schedule: Q04DX003 (sc), vehicle: Klucel (hydroxypropylcellulose) (HPC)); 55 % of control under setting [5]; 48 % of control under setting [6].

`CC1=CC2c3cccc4[nH]cc(c34)CC2N(C)C1` (configuration not stated): the T/C runs as follows: (dose: 6.25 mg/kg/injection, schedule: Q04DX003 (ip), vehicle: suspension in saline) 93 % of control; (dose: 12.5 mg/kg/injection, schedule: Q04DX003 (ip), vehicle: suspension in saline) 111 % of control; (dose: 25.0 mg/kg/injection, schedule: Q04DX003 (ip), vehicle: suspension in saline) 115 % of control; (dose: 50.0 mg/kg/injection, schedule: Q04DX003 (ip), vehicle: suspension in saline) 115 % of control.

In the case of `CN(C)N=Nc1ccc(S(N)(=O)=O)cc1`, the T/C by setting is: (dose: 100.0 mg/kg/injection, schedule: Q01DX010 (sc), vehicle: Klucel (hydroxypropylcellulose) (HPC)) -13 % of control; (dose: 100.0 mg/kg/injection, schedule: Q04DX003 (sc), vehicle: Klucel (hydroxypropylcellulose) (HPC)) 38 % of control and 61 % of control; (dose: 200.0 mg/kg/injection, schedule: Q01DX010 (sc), vehicle: Klucel (hydroxypropylcellulose) (HPC)) -72 % of control; (dose: 200.0 mg/kg/injection, schedule: Q04DX003 (sc), vehicle: Klucel (hydroxypropylcellulose) (HPC)) 3 % of control and 11 % of control; (dose: 400.0 mg/kg/injection, schedule: Q01DX010 (sc), vehicle: Klucel (hydroxypropylcellulose) (HPC)) -100 % of control.

On to `COC(=O)CC(N)C(=O)O` (configuration not stated), for which the T/C by setting is: (dose: 300.0 mg/kg/injection, schedule: Q04DX003 (sc), vehicle: saline) 84 % of control; (dose: 600.0 mg/kg/injection, schedule: Q04DX003 (sc), vehicle: saline) 80 % of control; (dose: 1200.0 mg/kg/injection, schedule: Q04DX003 (sc), vehicle: saline) 55 % of control; (dose: 2400.0 mg/kg/injection, schedule: Q04DX003 (sc), vehicle: saline) 54 % of control.

For the compound `COC1N(C2CC(O)C(CO)O2)C(=O)NC(=O)C1(F)Br` (configuration not stated), the T/C runs as follows: (dose: 12.5 mg/kg/injection, schedule: Q01DX010 (sc), vehicle: saline) 54 % of control; (dose: 50.0 mg/kg/injection, schedule: Q01DX010 (sc), vehicle: saline) 12 % of control and 24 % of control; (dose: 100.0 mg/kg/injection, schedule: Q01DX010 (sc), vehicle: saline) 12 % of control and 13 % of control.

With `[N-]=[N+]=[N-]`, the T/C reads like this: (dose: 6.0 mg/kg/injection, schedule: Q04DX003 (ip), vehicle: water) 68 % of control; (dose: 24.0 mg/kg/injection, schedule: Q04DX003 (ip), vehicle: water) 73 % of control.

Turning to `Nc1ccn(C2OC(CO)C(O)C2O)c(=O)n1` (configuration not stated), the T/C was 56 % of control (dose: 15.63 mg/kg/injection, schedule: Q01DX010 (sc), vehicle: water); 91 % of control (dose: 31.25 mg/kg/injection, schedule: Q01DX010 (sc), vehicle: water); 55 % of control (dose: 62.5 mg/kg/injection, schedule: Q01DX010 (sc), vehicle: water); 2 % of control (dose: 125.0 mg/kg/injection, schedule: Q01DX010 (sc), vehicle: water); 87 % of control (dose: 500.0 mg/kg/injection, schedule: Q04DX003 (sc), vehicle: saline); 61 % of control (dose: 1000.0 mg/kg/injection, schedule: Q04DX003 (sc), vehicle: saline).

As to `Nc1ncn(C2CC(O)C(CO)O2)c(=O)n1` (configuration not stated), the T/C (dose: 0.75 mg/kg/injection, schedule: Q01DX010 (sc), vehicle: saline) was 85 % of control.

As for `Cc1c(-c2ccc(-c3ccccc3F)cc2)nc2ccc(F)cc2c1C(=O)O`, the T/C (dose: 6.9 mg/kg/injection, schedule: Q01DX009 (ip), vehicle: water) was 7 % of control and 13 % of control and 31 % of control; the T/C (dose: 19.2 mg/kg/injection, schedule: Q01DX009 (ip), vehicle: water) was 5 % of control and 14 % of control and 21 % of control; the T/C (dose: 32.0 mg/kg/injection, schedule: Q01DX009 (ip), vehicle: water) was 15 % of control and 17 % of control.

Regarding `CC1=C/C(O)CC(=O)Cc2nc(co2)C(=O)N2CCC=C2C(=O)OC(C(C)C)C(C)/C=C\C(=O)NC/C=C\1` (configuration not stated), the T/C is, setting by setting: under setting [5], 102 % of control; under setting [6], 90 % of control; (dose: 1200.0 mg/kg/injection, schedule: Q04DX003 (sc), vehicle: Klucel (hydroxypropylcellulose) (HPC)) 69 % of control; (dose: 2400.0 mg/kg/injection, schedule: Q04DX003 (sc), vehicle: Klucel (hydroxypropylcellulose) (HPC)) 82 % of control.

Consider `Oc1c(Cl)cc(Cl)cc1C=NCCSc1ccc(Cl)cc1`, for which the T/C is, setting by setting: (dose: 150.0 mg/kg/injection, schedule: Q04DX003 (ip), vehicle: Klucel (hydroxypropylcellulose) (HPC)) 71 % of control; (dose: 1200.0 mg/kg/injection, schedule: Q04DX003 (ip), vehicle: Klucel (hydroxypropylcellulose) (HPC)) 70 % of control.

Source of the values: PubChem BioAssay AID266 (DTP/NCI, 2004).
